Assay [1] relates to rats (KA-induced seizures). Kind of assay: KA-induced seizures in rats, seizure scoring for 4 h. It counts as in vivo. Conditions: 5 mg/kg injected immediately after 10 mg/kg KA; 4-h rating period. As to the method: These compounds were tested in vivo. Seizures were initiated in rats by injection with 10 mg/kg of KA (insult).
For assay [2], the target named is T1, ΔTM rFAAH (Rattus norvegicus, UniProt P97612).
T1 construct: 15 ug of ΔTM rFAAH (cell lysate obtained by recombinant procedure); made in house
T1 sequence (P97612 30-579 limits assumed): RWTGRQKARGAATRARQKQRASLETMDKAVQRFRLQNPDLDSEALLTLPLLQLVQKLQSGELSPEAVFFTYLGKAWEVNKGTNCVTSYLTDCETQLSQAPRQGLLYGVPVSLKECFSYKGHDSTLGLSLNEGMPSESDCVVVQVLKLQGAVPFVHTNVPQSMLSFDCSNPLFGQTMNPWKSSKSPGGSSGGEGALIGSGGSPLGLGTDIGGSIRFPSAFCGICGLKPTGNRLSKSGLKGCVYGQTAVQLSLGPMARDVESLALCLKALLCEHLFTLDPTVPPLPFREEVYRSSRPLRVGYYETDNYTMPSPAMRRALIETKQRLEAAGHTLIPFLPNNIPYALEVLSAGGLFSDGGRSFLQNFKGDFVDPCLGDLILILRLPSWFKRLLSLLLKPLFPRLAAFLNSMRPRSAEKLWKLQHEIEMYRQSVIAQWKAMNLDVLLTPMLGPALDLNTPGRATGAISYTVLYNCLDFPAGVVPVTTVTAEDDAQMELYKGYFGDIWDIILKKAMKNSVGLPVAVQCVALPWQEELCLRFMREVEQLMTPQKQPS
The assay is described as follows: Fluorescent enzyme assay, FAAH (AAMCA hydrolysis). The conditions noted are these: AAMCA substrate; for inhibition at 1 µM: 1000 nM inhibitor. The format is biochemical.

Assay [3] addresses T2, hMGL (Homo sapiens, UniProt Q99685).
T2 construct: A full-length cDNA clone of the human MGL transcript variant 1; made in house; host or cells: E. coli BL21 (DE3)
T2 sequence (Q99685 2-303 limits assumed): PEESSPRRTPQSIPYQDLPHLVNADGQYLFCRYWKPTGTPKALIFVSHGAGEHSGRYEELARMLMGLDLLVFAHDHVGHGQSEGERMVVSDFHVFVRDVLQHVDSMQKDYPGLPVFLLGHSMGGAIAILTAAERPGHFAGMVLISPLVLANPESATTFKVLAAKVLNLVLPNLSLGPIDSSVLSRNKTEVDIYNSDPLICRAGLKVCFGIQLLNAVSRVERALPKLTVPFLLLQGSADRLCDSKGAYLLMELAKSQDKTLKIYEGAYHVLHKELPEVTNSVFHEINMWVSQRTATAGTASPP
Kind of assay: Fluorescent enzyme assay, MGL (AHMMCE hydrolysis). The format is biochemical. Conditions: 1000 nM inhibitor; AHMMCE substrate; screening assay. In outline:
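Recombinant N-terminal His6-tagged human MGL (transcript variant 1) expressed in E. coli BL21(DE3), purified by metal-affinity chromatography. Inhibition measured as reduction in rate of AHMMCE hydrolysis; % inhibition from three inhibitor concentrations, IC50/Ki from eight-point curves.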

Broadly, the inhibition is the change of the read-out against control, counted positive when it falls. On to `C#CCc1nnnn1C(=O)N(C)C` [Compound 2, N,N-dimethyl-5-prop-2-yn-1-yl-1H-tetrazole-1-carboxamide], for which the KA-induced seizure severity result in assay [1] is given as “reduce KA-induced seizure severity”. Moreover, the values for the inhibition at 1 µM in assay [2] (screening assay) and in assay [3] were 90% and 35%, respectively.

The IC50 is the concentration that inhibits the measured activity by half. In the case of `CN(CCCCCl)C(=O)n1cnc(-c2ccccc2)c1` [Compound 47, N-(4-chlorobutyl)-N-methyl-4-phenyl-1H-imidazole-1-carboxamide], the inhibition at 0.01 µM in assay [2] (10 nM inhibitor, screening assay) amounted to 12%. Further, the values for the inhibition at 1 µM in assay [2] (screening assay) and in assay [3] were 90% and 15%, respectively. The IC50 in assay [2] (eight-point dose response) was 78 nM.

On to `CN(C)C(=O)n1cnc(-c2ccccc2)c1` [Compound 33, N,N-dimethyl-4-phenyl-1H-imidazole-1-carboxamide], for which the inhibition at 1 µM in assay [2] (screening assay) stood at 88%; in assay [3], 6%.

(Values after patent US9271962B2 (NORTHEASTERN UNIVERSITY, priority 2008, dated 2016).)
